Reference: patent US7875653B2, “Emulsion comprising 1,2-alkanediols and polar oil components” (Beiersdorf AG, priority 2005, dated 2011)

Assay: Polarity: interfacial tension towards water
Assay type: physicochemical
Excerpt: Oils and fats differ from one another in their polarity, which is difficult to define. It has already been proposed to adopt the interfacial tension towards water as a measure of the polarity index of an oil or of an oil phase. The lower the interfacial tension between this oil phase and water, the greater the polarity of the oil phase in question. According to the present invention, the interfacial tension is regarded as one possible measure of the polarity of a given oil component.
The interfacial tension is the force which acts on an imaginary line one meter in length at the interface between two phases. The physical unit for this interfacial tension is conventionally calculated from the force/length relationship and is usually expressed in mN/m (millinewtons divided by meters). It has a positive sign if it tends to reduce the interface. In the converse case, it has a negative sign. For the purposes of the present invention, lipids are regarded as polar if their interfacial tension towards water is less than about 20 mN/m, and as nonpolar if their interfacial tension towards water is more than about 30 mN/m. Lipids with an interfacial tension towards water between about 20 and about 30 mN/m are generally referred to as moderately polar.

[1] = polar lipids, less than about 20 mN/m
[2] = moderately polar lipids, between about 20 and about 30 mN/m

Row | Compound | Polarity (interfacial tension towards water) [1] [mN/m] | Polarity (interfacial tension towards water) [2] [mN/m]
1 | CCCCOC(=O)CCCCC(=O)OCCCC [Cetiol B, Dibutyl adipate] | 14.3 | –
2 | CCCCCCCCCCCCCC(=O)OCC(CCCCCCCC)CCCCCCCCCC (stereo not shown) [M.O.D., Octyldodecyl myristate] | – | 22.1
3 | Isotridecyl 3,5,5 trimethyl hexanona-noate [Dermol 139] | – | 24.5
4 | CC(C)CCCCCCCOC(=O)CC(C)CC(C)(C)C (stereo not shown) [Dermol 109, Isodecyl 3,5,5-trimethyl hexanoate] | – | 29.1
5 | CCCCCCOCCCCCC [Dihexyl ether] | – | 29.2
6 | Triisostearin [Prisorine 2041 GTIS] | 2.4 | –
7 | CCCCCCCCCCC(CO)CCCCCCCC (stereo not shown) [Eutanol G, Octyldodecanol] | – | 24.8
8 | PEG 2 Diethylene hexanoate [Dermol 488] | 10.1 | –
9 | CCCCCCCCCC(=O)OCCCC(C)C [Dermol IHD, Isohexyl decanoate] | – | 29.7
10 | CCCCCCCCCCCCCCCCCCOC(=O)CCCCCC [Tegosoft SH, Stearyl heptanoate] | 17.8 | –
11 | CC(C)CCCCCCCOC(=O)C(C)(C)C [DUB VCI 10, Isodecyl neopentanoate] | – | 29.9
12 | CCCCCCC(CCCC)C(=O)O (stereo not shown) [Isocarb 12, Butyl octanoic acid] | – | 22.1
13 | CCCCCCCCCCCCCCCCCC(=O)OC(C)C [Isopropyl stearate] | – | 21.9
14 | CCCCCCCC(=O)OCCCCCCCC(C)C [Dermol 108, Isodecyl octanoate] | – | 29.6
15 | CCCCC(CC)C(=O)OCCC(C)CC(C)(C)C (stereo not shown) [Dermol 98, 2-Ethylhexanoic acid 3,5,5 trimethyl ester] | – | 26.2
16 | CCCCCCCC(=O)OCC(COC(=O)CCCCCCC)OC(=O)CCCCCCC [Trivent OCG, Tricaprylin] | – | 20.2
